This note sets out measurements from PubChem BioAssay AID1963429 (Molecular Pharmacology Branch, DTP, NCI, 2024).

For this test, the system named is 126254-015-R-J1-PDC complex spheroid growth, % test/control. Briefly: Anticancer human tumor 126254-015-R-J1-PDC patient-derived soft tissue sarcoma cell line growth inhibition [Asc]. Conditions: for viability, T/C: stronger effect = lower value. Put shortly: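 Concentration series start at each agent's clinical Cmax, or at 10 microM when none is established, and drop in half-log steps; agents are applied alone or together to complex spheroids built with HUVEC and hMSC.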

Setting [1] is: curve of first compound, second compound 0.01 µM.
The mark [2] stands for this setting: curve of first compound, second compound 0.0316 µM.
[3] abbreviates: curve of first compound, second compound 0.1 µM.
Where [4] appears, read: curve of first compound, second compound 0.316 µM.
The mark [5] stands for this setting: curve of first compound, second compound 1 µM.
[6] abbreviates: second compound 0.01 µM, first compound 0.00316 µM.
Where [7] appears, read: second compound 0.01 µM, first compound 0.01 µM.
Where [8] appears, read: second compound 0.01 µM, first compound 0.0316 µM.
The mark [9] stands for this setting: second compound 0.01 µM, first compound 0.1 µM.
[10] abbreviates: second compound 0.01 µM, first compound 0.316 µM.
Setting [11] is: second compound 0.01 µM, first compound 1 µM.
The mark [12] stands for this setting: second compound 0.0316 µM, first compound 0.00316 µM.
Where [13] appears, read: second compound 0.0316 µM, first compound 0.01 µM.
Setting [14] is: second compound 0.0316 µM, first compound 0.0316 µM.
[15] abbreviates: second compound 0.0316 µM, first compound 0.1 µM.
[16] abbreviates: second compound 0.0316 µM, first compound 0.316 µM.
Where [17] appears, read: second compound 0.0316 µM, first compound 1 µM.
Setting [18] is: second compound 0.1 µM, first compound 0.00316 µM.
The mark [19] stands for this setting: second compound 0.1 µM, first compound 0.01 µM.
[20] abbreviates: second compound 0.1 µM, first compound 0.0316 µM.
[21] abbreviates: second compound 0.1 µM, first compound 0.1 µM.
Setting [22] is: second compound 0.1 µM, first compound 0.316 µM.
The mark [23] stands for this setting: second compound 0.1 µM, first compound 1 µM.
The mark [24] stands for this setting: second compound 0.316 µM, first compound 0.00316 µM.
Setting [25] is: second compound 0.316 µM, first compound 0.01 µM.
The mark [26] stands for this setting: second compound 0.316 µM, first compound 0.0316 µM.
The mark [27] stands for this setting: second compound 0.316 µM, first compound 0.1 µM.
Setting [28] is: second compound 0.316 µM, first compound 0.316 µM.
Setting [29] is: second compound 0.316 µM, first compound 1 µM.
The mark [30] stands for this setting: second compound 1 µM, first compound 0.00316 µM.
Where [31] appears, read: second compound 1 µM, first compound 0.01 µM.
[32] abbreviates: second compound 1 µM, first compound 0.0316 µM.
Where [33] appears, read: second compound 1 µM, first compound 0.1 µM.
The mark [34] stands for this setting: second compound 1 µM, first compound 0.316 µM.
Setting [35] is: second compound 1 µM, first compound 1 µM.

Where “and” joins values, the source holds several entries; their conditions need not be identical. Equal values may be shown once. Some results are limits rather than exact numbers.
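Also: spheroids exposed to compound for seven days.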
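For viability, T/C in this document: 100% = DMSO vehicle control wells.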

For `O=C(c1ccc(F)c(F)c1Nc1ccc(I)cc1F)N1CC(O)([C@@H]2CCCCN2)C1` + CNC(C)C(=O)NC1CN(S(=O)(=O)c2cccc(S(=O)(=O)N3CCC4CCC(C(=O)NC(c5ccccc5)c5ccccc5)N4C(=O)C(NC(=O)C(C)NC)C3)c2)CCC2CCC(C(=O)NC(c3ccccc3)c3ccccc3)N2C1=O, the IC50 came out at 594 nM under setting [1]; 377 nM under setting [2]; 164 nM under setting [3]; 86.6 nM under setting [4]; 85.2 nM under setting [5]. In addition, the viability, T/C is 82.4% under setting [6]; 87.6% under setting [7]; 79.8% under setting [8]; 90.9% under setting [9]; 66.9% under setting [10]; 36% under setting [11]. The viability, T/C reads like this: under setting [12], 84.2%; under setting [13], 72.7%; under setting [14], 67.9%; under setting [15], 67.2%; under setting [16], 55.1%; under setting [17], 33%. The viability, T/C is, setting by setting: under setting [18], 59.7%; under setting [19], 67.3%; under setting [20], 67.5%; under setting [21], 59.6%; under setting [22], 37%; under setting [23], 28.1%. The viability, T/C by setting is: under setting [24], 62.5%; under setting [25], 62.8%; under setting [26], 54.6%; under setting [27], 51.3%; under setting [28], 30.1%; under setting [29], 19.1%. Moreover, the viability, T/C runs as follows: under setting [30], 56.9%; under setting [31], 54.1%; under setting [32], 54.3%; under setting [33], 49.3%; under setting [34], 27%; under setting [35], 21.1%.
Consider `Cn1ncnc1[C@H]1c2n[nH]c(=O)c3cc(F)cc(c23)N[C@@H]1c1ccc(F)cc1` + CNC(C)C(=O)NC1CN(S(=O)(=O)c2cccc(S(=O)(=O)N3CCC4CCC(C(=O)NC(c5ccccc5)c5ccccc5)N4C(=O)C(NC(=O)C(C)NC)C3)c2)CCC2CCC(C(=O)NC(c3ccccc3)c3ccccc3)N2C1=O, for which the IC50 is more than 100 nM under setting [1]; more than 100 nM under setting [2]; 56.2 nM under setting [3]; 13.1 nM under setting [4]; 10 nM under setting [5]. For the same compound, the viability, T/C reads like this: (second compound 0.01 µM, first compound 0.000316 µM) 82.1%; (second compound 0.01 µM, first compound 0.001 µM) 82.3%; under setting [6], 78.2%; under setting [7], 79.6%; under setting [8], 77.3%; under setting [9], 63.1%. For the same compound, the viability, T/C by setting is: (second compound 0.0316 µM, first compound 0.000316 µM) 71%; (second compound 0.0316 µM, first compound 0.001 µM) 77.3%; under setting [12], 71%; under setting [13], 61.4%; under setting [14], 56.1%; under setting [15], 58.1%. The viability, T/C by setting is: (second compound 0.1 µM, first compound 0.000316 µM) 67.3%; (second compound 0.1 µM, first compound 0.001 µM) 67.4%; under setting [18], 60.5%; under setting [19], 55.8%; under setting [20], 58.4%; under setting [21], 44.7%. The viability, T/C (second compound 0.316 µM, first compound 0.000316 µM) is 56%; the viability, T/C (second compound 0.316 µM, first compound 0.001 µM) was 70.9%; the viability, T/C under setting [24] is 59.2%; the viability, T/C under setting [25] was 51.8%; the viability, T/C under setting [26] is 44.4%; the viability, T/C under setting [27] is 41%. In addition, the viability, T/C is, setting by setting: (second compound 1 µM, first compound 0.000316 µM) 53.2%; (second compound 1 µM, first compound 0.001 µM) 63.7%; under setting [30], 56.2%; under setting [31], 42.4%; under setting [32], 46.8%; under setting [33], 44.1%.
Regarding `C#Cc1c(F)ccc2cc(O)cc(-c3ncc4c(N5CC6CCC(C5)N6)nc(OCC56CCCN5CC(F)C6)nc4c3F)c12` (stereo not given), the viability, T/C (compound 0.0316 µM) is 97.4% and 92.6% and 97.8%; the viability, T/C (compound 0.1 µM) was 92.8% and 89.8% and 108%; the viability, T/C (compound 0.316 µM) is 100% and 97.5% and 103%; the viability, T/C (compound 1 µM) was 94.1% and 97.4% and 93.6%; the viability, T/C (compound 3.16 µM) is 101% and 95% and 92.8%; the viability, T/C (compound 10 µM) was 82.5% and 76.4% and 72.9%. Moreover, under “curve of compound”, the IC50 was more than 10000 nM.
With `CNC(C)C(=O)NC1CN(S(=O)(=O)c2cccc(S(=O)(=O)N3CCC4CCC(C(=O)NC(c5ccccc5)c5ccccc5)N4C(=O)C(NC(=O)C(C)NC)C3)c2)CCC2CCC(C(=O)NC(c3ccccc3)c3ccccc3)N2C1=O` (stereo not given), the viability, T/C (compound 0.00316 µM) is 94.8% and 99.9%; the viability, T/C (compound 0.01 µM) is 86.8% [middle of 15 runs]; the viability, T/C (compound 0.0316 µM) is 76.6% [middle of 15 runs]; the viability, T/C (compound 0.1 µM) is 64.3% [middle of 15 runs]; the viability, T/C (compound 0.316 µM) was 59.9% [middle of 15 runs]; the viability, T/C (compound 1 µM) was 55.5% [middle of 15 runs]. Further, the IC50 (compound alone, run of 10/03/2022) is more than 1000 nM; the IC50 (curve of compound) was > 1000 nM and 845 nM.
Turning to `COc1c(OCCCN2CCOCC2)ccc2c3n(c(=NC(=O)c4cnc(N)nc4)nc12)CCN3` + CNC(C)C(=O)NC1CN(S(=O)(=O)c2cccc(S(=O)(=O)N3CCC4CCC(C(=O)NC(c5ccccc5)c5ccccc5)N4C(=O)C(NC(=O)C(C)NC)C3)c2)CCC2CCC(C(=O)NC(c3ccccc3)c3ccccc3)N2C1=O, the IC50 is, setting by setting: under setting [1], 52 nM; under setting [2], 53.3 nM; under setting [3], 32.3 nM; under setting [4], 19.9 nM; under setting [5], 15.8 nM. Also, the viability, T/C is 84.8% under setting [6]; 82.4% under setting [7]; 57.8% under setting [8]; 37.3% under setting [9]; 20.1% under setting [10]; 12.5% under setting [11]. Also, the viability, T/C is 74.8% under setting [12]; 73.2% under setting [13]; 60.7% under setting [14]; 36.6% under setting [15]; 19.3% under setting [16]; 11.4% under setting [17]. Also, the viability, T/C is 66.1% under setting [18]; 63.5% under setting [19]; 47.9% under setting [20]; 36% under setting [21]; 17.5% under setting [22]; 11.2% under setting [23]. For the same compound, the viability, T/C reads like this: under setting [24], 60.8%; under setting [25], 54.6%; under setting [26], 47.8%; under setting [27], 29.1%; under setting [28], 18.2%; under setting [29], 9.08%. Besides, the viability, T/C runs as follows: under setting [30], 53.7%; under setting [31], 56.6%; under setting [32], 43.6%; under setting [33], 28.3%; under setting [34], 15.6%; under setting [35], 9.01%.
